In patent US8927715B2, “Inhibitors of 11β-hydroxysteroid dehydrogenase type 1” (Vitae Pharmaceuticals, Inc., priority 2006, dated 2015):

These molecules were tested against human 11β-HSD1 (Homo sapiens, UniProt P28845) (assay: Inhibition of a microsomal preparation of 11β-HSD1, SPA (Biological Test Example 2)). Conditions: read-out: Biological Test Example 2 (IC50 class).
human 11β-HSD1, sequence (P28845 whole entry): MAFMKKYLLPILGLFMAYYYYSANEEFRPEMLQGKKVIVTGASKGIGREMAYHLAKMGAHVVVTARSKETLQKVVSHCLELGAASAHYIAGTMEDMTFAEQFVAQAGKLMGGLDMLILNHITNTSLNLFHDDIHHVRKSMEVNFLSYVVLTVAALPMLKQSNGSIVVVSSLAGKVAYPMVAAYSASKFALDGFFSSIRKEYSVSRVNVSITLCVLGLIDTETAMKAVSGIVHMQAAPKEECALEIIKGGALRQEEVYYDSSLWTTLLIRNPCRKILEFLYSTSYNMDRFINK
Assay type: biochemical
Parameters: expressed in transfected cells; host or cells: CHO cells (microsomes)
Experimental: All reactions are carried out at room temperature in 96 well clear flexible PET Microbeta plates (PerkinElmer). […] After a 10 minute pre-incubation, 50 μL of enzyme solution containing microsomes isolated from CHO cells overexpressing human 11β-HSD1 (10-20 μg/ml of total protein) is added, and the plates are then incubated for 90 minutes at room temperature. The reaction is stopped by adding 50 μl of the SPA beads suspension containing […] 18β-glycyrrhetinic acid, 5 mg/ml protein A coated YSi SPA beads (GE Healthcare) and 3.3 μg/ml of anti-cortisol antibody (East Coast Biologics) in Superblock buffer (Bio-Rad). The plates are then shaken for 120 minutes at room temperature, and the SPA signal corresponding to [^3H]cortisol is measured on a Microbeta plate reader.
`O=C(O)CC1CCC2(CC1)CCN(C(=O)NC1C3CC4CC(C3)CC1C4)CC2` (stereo not shown) [Example 82, 2-(3-((2-Adamantyl)carbamoyl)-3-azaspiro[5.5]undecan-9-yl)acetic acid] gave an IC50 of 50 to 1000 nM.
With `CN(C)CCCC(=O)N1Cc2ccccc2C2(CCN(C(=O)NC3C4CC5CC(C4)CC3C5)CC2)C1` (stereo not shown) [Example 113, N-(2-Adamantyl)-2-(4-(dimethylamino)butanoyl)-2,3-dihydro-1H-spiro[isoquinoline-4,4′-piperidine]-1′-carboxamide] the IC50 was < 50 nM.
In the case of `O=C(NC1C2CC3CC(C2)CC1C3)N1CCC2(CC1)OCc1ccccc12` (stereo not shown) [Example 83, N-(2-Adamantyl)-3H-spiro[isobenzofuran-1,4′-piperidine]-1′-carboxamide], the IC50 is reported as < 50 nM.
In the case of `CNCCN(C)C(=O)CC1CC2(CCN(C(=O)NC3C4CC5CC(C4)CC3C5)CC2)c2c(Br)cccc21` (stereo not shown) [Example 115, 7-Bromo-N-(2-adamantyl)-3-(2-(methyl(2-(methylamino)ethyl)amino)-2-oxoethyl)-2,3-dihydrospiro[indene-1,4′-piperidine]-1′-carboxamide], the IC50 is reported as < 50 nM.
In the case of `O=C(O)CC1CC2(CCN(C(=O)NC3C4CC5CC(C4)CC3C5)CC2)c2ccc(Cl)cc21` (racemic) [Example 56, (±)-2-(1′-((2-Adamantyl)carbamoyl)-5-chloro-2,3-dihydrospiro[indene-1,4′-piperidine]-3-yl)acetic acid], the IC50 is reported as < 50 nM.
With `O=C(O)[C@@H]1C[C@H]1C(=O)N1Cc2ccccc2C2(CCN(C(=O)OC3C4CC5CC(C4)CC3C5)CC2)C1` (mixture of isomers) [Example 100, (1RS,2RS)-2-(1′-(2-Adamantyloxycarbonyl)-2,3-dihydro-1H-spiro[isoquinoline-4,4′-piperidine]-2-ylcarbonyl)cyclopropanecarboxylic acid] the IC50 was < 50 nM.
Work on `O=C(O)C1CC1C(=O)N1Cc2ccccc2C2(CCN(C(=O)NC3C4CC5CC(C4)CC3C5)CC2)C1` [Example 99, (1S,2R)-2-(1′42-Adamantylcarbamoyl)-2,3-dihydro-1H-spiro[isoquinoline-4,4′-piperidine]-2-ylcarbonyl)cyclopropanecaxboxylic acid] yielded an IC50 of 50 to 1000 nM.
`COC(=O)CCS(=O)(=O)N1Cc2ccccc2C2(CCN(C(=O)NC3C4CC5CC(C4)CC3C5)CC2)C1` (stereo not shown) [Example 106, Methyl 3-(1′-(2-adamantylcarbamoyl)-1-H-spiro[isoquinoline-4,4′-piperidine]-2(3H)-ylsulfonyl)propanoate] was tested, and the IC50 was < 50 nM.
In the case of `O=C(O)CCC(=O)N1Cc2ccccc2C2(CCN(C(=O)NC3C4CC5CC(C4)CC3C5)CC2)C1` (stereo not shown) [Example 92, 4-(1′-(2-Adamantylcarbamoyl)-1H-spiro[isoquinoline-4,4′-piperidine]-2(3H)-yl)-4-oxobutanoic acid], the IC50 is reported as < 50 nM.
For `CCOC(=O)CC1CC2(CCN(C(=O)NC3C4CC5CC(C4)CC3C5)CC2)c2cccc(C)c21` (racemic) [Example 49, (±)-Ethyl 2(1′-((2-adamantyl)carbamoyl)-4-methyl-2,3-dihydrospiro[indene-1,4′-piperidine]-3-yl)acetate], the IC50 was < 50 nM.
For `O=C(NC1C2CC3CC(C2)CC1C3)N1CCC2(CC1)CC(Cc1nnn[nH]1)c1ccccc12` (racemic) [Example 46, (±)-3-((1H-Tetrazol-5-yl)methyl)-N-(2-adamantyl)-2,3-dihydrospiro[indene-1,4′-piperidine]-1′-carboxamide], the IC50 was < 50 nM.
With `O=C(O)CC1CC2(CCN(C(=O)NC3C4CC5CC(C4)CC3C5)CC2)c2cc(Cl)ccc21` (racemic) [Example 54, (±)-2-(1′-((2-Adamantyl)carbamoyl)-6-chloro-2,3-dihydrospiro[indene-1,4′-piperidin]-3-yl)acetic acid] the IC50 was < 50 nM.
In the case of `O=C(O)CC1CC2(CCN(C(=O)OC3C4CC5CC(C4)CC3C5)CC2)c2c(Br)cccc21` (racemic) [Example 63, (±)-2-(7-Bromo-1′-((2-adamantyloxy)carbonyl)-2,3-dihydrospiro[indene-1,4′-piperidine]-3-yl)acetic acid], the IC50 is reported as < 50 nM.
`O=C(O)CC1CC2(CCN(C(=O)NC3C4CC5CC(C4)CC3C5)CC2)c2cc(F)ccc21` (racemic) [Example 60, (±)-2-(1′-((2-Adamantyl)carbamoyl)-6-fluoro-2,3-dihydrospiro[indene-1,4′-piperidine]-3-yl)acetic acid] was tested, and the IC50 was < 50 nM.
`CN(C)CCNC(=O)CC1CC2(CCN(C(=O)NC3C4CC5CC(C4)CC3C5)CC2)c2c(Br)cccc21` (stereo not shown) [Example 114, 7-Bromo-N-(2-adamantyl)-3-(2-(2-(dimethylamino)ethylamino)-2-oxoethyl)-2,3-dihydrospiro[indene-1,4′-piperidine]-1′-carboxamide] was tested, and the IC50 was < 50 nM.
In the case of `O=C(CC1CC2(CCN(C(=O)NC3C4CC5CC(C4)CC3C5)CC2)c2c(Br)cccc21)NCCN1CCOCC1` (stereo not shown) [Example 120, 7-Bromo-N-(2-adamantyl)-3-(2-(2-morpholinoethylamino)-2-oxoethyl)-2,3-dihydrospiro[indene-1,4′-piperidine]-1′-carboxamide], the IC50 is reported as < 50 nM.
`CS(=O)(=O)N1Cc2ccccc2C2(CCN(C(=O)NC3C4CC5CC(C4)CC3C5)CC2)C1` (stereo not shown) [Example 34, N-(2-Adamantyl)-2-(methylsulfonyl)-2,3-dihydro-1H-spiro[isoquinoline-4,4′-piperidine]-1′-carboxamide] was tested, and the IC50 was < 50 nM.
For `CN1CCN(C(=O)CC2CC3(CCN(C(=O)NC4C5CC6CC(C5)CC4C6)CC3)c3c(Br)cccc32)CC1` (stereo not shown) [Example 112, 7-Bromo-N-(2-adamantyl)-3-(2-(4-methylpiperazin-1-yl)-2-oxoethyl)-2,3-dihydrospiro[indene-1,4′-piperidine]-1′-carboxamide], the IC50 was < 50 nM.
With `NC(=O)C12CC3CC(C1)C(OC(=O)N1CCC4(CC1)CC(CC(=O)O)c1ccccc14)C(C3)C2` (stereo not shown) [Example 73, 2-(1′-((1-Carbamoyl-4adamantyloxy)carbonyl)-2,3-dihydrospiro[indene-1,4′-piperidine]-3-yl)acetic acid] the IC50 was < 50 nM.
For `CN(C)C(=O)CC1CC2(CCN(C(=O)OC3C4CC5CC(C4)CC3C5)CC2)c2ccccc21` (racemic) [Example 71, (±)-2-Adamantyl 3-(2-(dimethylamino)-2-oxoethyl)-2,3-dihydrospiro[indene-1,4′-piperidine]-1′-carboxylate], the IC50 was < 50 nM.
With `O=C(O)CC1CC2(CCN(C(=O)NC3C4CC5CC3CC(F)(C5)C4)CC2)c2c(Br)cccc21` (stereo not shown) [Example 74] the IC50 was < 50 nM.
`CC(C(=O)O)C1CC2(CCN(C(=O)NC3C4CC5CC(C4)CC3C5)CC2)c2c(Br)cccc21` (stereo not shown) [Example 66, 2-(7-Bromo-1′-((2-adamantyl)carbamoyl)-2,3-dihydrospiro[indene-1,4′-piperidine]-3-yl)propanoic acid] was tested, and the IC50 was < 50 nM.
`Cc1cccc2c1C1(CCN(C(=O)NC3C4CC5CC(C4)CC3C5)CC1)CC2CC(=O)O` (racemic) [Example 48, (±)-2-(1′-((2-Adamantyl)carbamoyl)-7-methyl-2,3-dihydrospiro[indene-1,4′-piperidine]-3-yl)acetic acid] was tested, and the IC50 was < 50 nM.
With `CCOC(=O)CCN1Cc2ccccc2C2(CCN(C(=O)OC3C4CC5CC(C4)CC3C5)CC2)C1` (stereo not shown) [Example 32] the IC50 was < 50 nM.
In the case of `O=C(NC1C2CC3CC(C2)CC1C3)N1CCC2(CC1)NC(=S)c1ccccc12` (stereo not shown) [87, Step 1 Product], the IC50 is reported as < 50 nM.
With `O=C(O)CCS(=O)(=O)N1Cc2ccccc2C2(CCN(C(=O)NC3C4CC5CC(C4)CC3C5)CC2)C1` (stereo not shown) [Example 108, 3-(1′-(2-Adamantylcarbamoyl)-1H-spiro[isoquinoline-4,4′-piperidine]-2(3H)-ylsulfonyl)propanoic acid] the IC50 was < 50 nM.
For `O=C(NC1C2CC3CC(C2)CC1C3)N1CCC2(CC1)CC(CCN1CCOCC1)c1cccc(Br)c12` (racemic) [Example 126, (±)-7-Bromo-N-(2-adamantyl)-3-(2-morpholinoethyl)-2,3-dihydrospiro[indene-1,4′-piperidine]-1′-carboxamide], the IC50 was < 50 nM.
In the case of `CN1C(C)(C)c2ccccc2C12CCN(C(=O)NC1C3CC4CC(C3)CC1C4)CC2` (stereo not shown) [Example 103, N-(2-Adamantyl)-2,3,3-trimethylspiro[isoindoline-1,4′-piperidine]-1′-carboxamide], the IC50 is reported as < 50 nM.
With `CS(=O)(=O)N1Cc2ccccc2C2(CCN(C(=O)OC3C4CC5CC(C4)CC3C5)CC2)C1` (stereo not shown) [Example 39, 2-Adamantyl 2-(methylsulfonyl)-2,3-dihydro-1H-spiro[isoquinoline-4,4′-piperidine]-1′-carboxylate] the IC50 was < 50 nM.
`Cc1ccc2c(c1)C(CC(=O)O)CC21CCN(C(=O)OC2C3CC4CC(C3)CC2C4)CC1` (racemic) [Example 65, (±)-2-(5-Methyl-1′-((2-adamantyloxy)carbonyl)-2,3-dihydrospiro[indene-1,4′-piperidine]-3-yl)acetic acid] was tested, and the IC50 was < 50 nM.
`O=C(CC1CC2(CCN(C(=O)NC3C4CC5CC(C4)CC3C5)CC2)c2c(Br)cccc21)N1CCOCC1` (stereo not shown) [Example 111, 7-Bromo-N-(2-adamantyl)-3-(2-morpholino-2-oxoethyl)-2,3-dihydrospiro[indene-1,4′-piperidine]-1′-carboxamide] was tested, and the IC50 was < 50 nM.
With `CN(C)CC1CC2(CCN(C(=O)OC3C4CC5CC(C4)CC3C5)CC2)c2c(Br)cccc21` (racemic) [Example 125, (±)-2-Adamantyl 7-bromo-3-((dimethylamino)methyl)-2,3-dihydro spiro[indene-1,4′-piperidine]-1′-carboxylate] the IC50 was < 50 nM.
For `O=C(NC1C2CC3CC(C2)CC1C3)N1CCC2(CC1)CC(CCO)c1cccc(Br)c12` (racemic) [Example 122, (±)-7-Bromo-N-(2-adamantyl)-3-(2-hydroxyethyl)-2,3-dihydrospiro[indene-1,4′-piperidine]-1′-carboxamide], the IC50 was < 50 nM.
In the case of `N#CCC1CC2(CCN(C(=O)NC3C4CC5CC(C4)CC3C5)CC2)c2ccccc21` (racemic) [Example 45], the IC50 is reported as < 50 nM.
